In PubChem BioAssay (NCI) one finds TGI and GI50 data, which are given here for 14 compounds.

Some test systems named below: ACHN renal; HOP-92 NSCLC; MDA-N; MOLT-4 leukemia; NCI/ADR-RES ovarian; OVCAR-5 ovarian; RPMI-8226 leukemia; RXF 393 renal; SK-MEL-28 melanoma; SK-OV-3 ovarian.
Holding throughout (assay): growth of human tumour cells (NCI), 48 h

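1) Cells in 96-well plates. 2) Compound, 48 h, 5 concentrations. 3) Linear interpolation between surrounding doses. 4) Unreached endpoint = highest concentration. The concentration for 50% growth inhibition is given as GI50. TGI denotes the concentration required for complete inhibition of growth.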

Turning to `CC1(C)[C@@H]2C[C@H]1c1cnc(-c3ccccn3)cc1C2[C@@H]1c2cc(-c3ccccn3)ncc2[C@@H]2C[C@H]1C2(C)C` (stereo partly specified), the TGI with ACHN renal, in the test with HOP-92 NSCLC, in the test on MDA-N, in the test on MOLT-4 leukemia, with NCI/ADR-RES ovarian and with OVCAR-5 ovarian was above 100 µM throughout. For the same compound, the TGI with RPMI-8226 leukemia, in the test with RXF 393 renal, in the test with SK-MEL-28 melanoma and in the test on SK-OV-3 ovarian was above 100 µM throughout.
As to `COc1ccc(-c2c(C#N)c(-c3ccccc3)n(NS(=O)(=O)c3ccccc3)c(=O)c2C#N)cc1`, the TGI in the test on ACHN renal is above 100 µM; in the test on HOP-92 NSCLC it was above 100 µM; with MDA-N it was above 100 µM; in the test with MOLT-4 leukemia it was 91.2 µM; with NCI/ADR-RES ovarian, above 100 µM; in the test with OVCAR-5 ovarian it was above 100 µM. Moreover, the TGI is 68.8 µM in the test with RPMI-8226 leukemia, above 100 µM in the test with RXF 393 renal, above 100 µM in the test with SK-MEL-28 melanoma and above 100 µM in the test on SK-OV-3 ovarian.
Consider `NC(N)=N/N=C/c1nc2sccn2c1[N+](=O)[O-]`, for which the TGI was above 100 µM with ACHN renal; above 100 µM in the test on HOP-92 NSCLC; 39.1 µM with MDA-N; above 100 µM with NCI/ADR-RES ovarian; above 100 µM in the test with OVCAR-5 ovarian; above 100 µM in the test with RPMI-8226 leukemia. Further, the values for the TGI in the test on RXF 393 renal, with SK-MEL-28 melanoma and with SK-OV-3 ovarian were 36.9 µM, above 100 µM and above 100 µM, respectively.
For the compound `C/C=C/[C@H]1O[C@@](OC)([C@@H](C)[C@H](O)[C@H](C)[C@H]2OC(=O)/C(OC)=C/C(C)=C/[C@@H](C)[C@@H](O)[C@@H](C)[C@@H](O)[C@H](C)C/C(C)=C/C=C/[C@@H]2OC)CC(OC2CC(O)C(OC(N)=O)C(C)O2)[C@@H]1C` (stereo partly specified), the TGI in the test on ACHN renal was 8.27 µM; in the test with HOP-92 NSCLC it was 11 µM; with MDA-N, 0.0486 µM; in the test on MOLT-4 leukemia it was below 0.01 µM; in the test with NCI/ADR-RES ovarian, 19.4 µM; in the test on OVCAR-5 ovarian it was 17 µM. In addition, the TGI with RPMI-8226 leukemia was below 0.0378 µM; in the test on RXF 393 renal, 15.7 µM; with SK-MEL-28 melanoma, 14.2 µM; in the test on SK-OV-3 ovarian, 20.7 µM.
As for `O=C(Nc1cccc(-c2cn3ccccc3n2)c1)c1ccncc1`, the TGI is above 100 µM in the test on ACHN renal; above 100 µM in the test on HOP-92 NSCLC; above 100 µM in the test on MDA-N; 52.6 µM in the test on MOLT-4 leukemia; 65.1 µM with NCI/ADR-RES ovarian; above 100 µM in the test on OVCAR-5 ovarian. Also, the TGI in the test on RPMI-8226 leukemia was 39.7 µM; with RXF 393 renal, above 100 µM; in the test with SK-MEL-28 melanoma, above 100 µM; with SK-OV-3 ovarian it was above 100 µM.
As for `CCCCN(c1ccccc1)c1ncnc2c1cnn2C`, the TGI is above 100 µM in the test on ACHN renal; above 100 µM in the test with HOP-92 NSCLC; above 100 µM with MDA-N; 40.8 µM in the test with MOLT-4 leukemia; 72.7 µM with NCI/ADR-RES ovarian; above 100 µM with OVCAR-5 ovarian. In addition, the TGI in the test with RPMI-8226 leukemia is 48 µM; in the test with RXF 393 renal it was 89.4 µM; with SK-MEL-28 melanoma, above 100 µM; in the test with SK-OV-3 ovarian, above 100 µM.
As for `Cc1ccc2c(c1)OC1Nc3ccccc3C1=C2O` (stereo unspecified), the TGI with ACHN renal was 60.8 µM; in the test on HOP-92 NSCLC, above 100 µM; in the test on MDA-N, 68.1 µM; in the test with MOLT-4 leukemia, above 100 µM; with NCI/ADR-RES ovarian, 86.3 µM; in the test on OVCAR-5 ovarian it was above 100 µM. In addition, the TGI was above 100 µM with RPMI-8226 leukemia, 72.4 µM in the test on RXF 393 renal, above 100 µM with SK-MEL-28 melanoma and 64.3 µM in the test with SK-OV-3 ovarian.
As to `N#CCc1nc(C#N)c(N)o1`, the TGI in the test with ACHN renal, with HOP-92 NSCLC, with MDA-N, in the test with MOLT-4 leukemia, in the test with NCI/ADR-RES ovarian and in the test on OVCAR-5 ovarian was above 100 µM in each case. Besides, the TGI in the test with RPMI-8226 leukemia, in the test with RXF 393 renal, in the test with SK-MEL-28 melanoma and in the test on SK-OV-3 ovarian was above 100 µM in each case. In addition, in the test with RPMI-8226 leukemia, the GI50 is above 100 µM.
`CCCCCCCCCCCCCCCCNc1nc(=O)n(C2CC(O)C(CO)O2)cc1F` (stereo unspecified): the TGI was found to be 11.9 µM in the test with ACHN renal; 25.1 µM with HOP-92 NSCLC; 72.1 µM in the test with MDA-N; 37.7 µM in the test on MOLT-4 leukemia; 27.1 µM with NCI/ADR-RES ovarian; 47.6 µM with OVCAR-5 ovarian. The TGI in the test on RPMI-8226 leukemia is 37.6 µM; in the test with RXF 393 renal, 28.4 µM; in the test with SK-MEL-28 melanoma, 28.4 µM; with SK-OV-3 ovarian, 28.3 µM.
On to `CCN(CC)CCCNc1ccc2nnn3c4ccc(O)cc4c(=O)c1c23`, for which the TGI came to 17.3 µM in the test on ACHN renal; 43.8 µM with HOP-92 NSCLC; 20.9 µM with MDA-N; 18.5 µM in the test with MOLT-4 leukemia; 22.9 µM in the test on NCI/ADR-RES ovarian; 26.8 µM in the test with OVCAR-5 ovarian. Besides, the TGI was determined as 32.2 µM in the test on RPMI-8226 leukemia, 15 µM in the test on RXF 393 renal, 32 µM with SK-MEL-28 melanoma and 22.1 µM in the test on SK-OV-3 ovarian.
On to `N#CC1=CNc2sccc2S1(=O)=O`, for which the TGI in the test with ACHN renal, in the test on HOP-92 NSCLC, in the test with MDA-N, in the test with MOLT-4 leukemia, with NCI/ADR-RES ovarian and with OVCAR-5 ovarian was above 100 µM each time. In addition, the TGI in the test with RPMI-8226 leukemia, in the test with SK-MEL-28 melanoma and in the test on SK-OV-3 ovarian was above 100 µM each time.
For the compound `COC(OC)C(O)C1OC=CC1n1cnc2c(N)ncnc21` (stereo unspecified), the TGI with ACHN renal, in the test on HOP-92 NSCLC, with MDA-N, with MOLT-4 leukemia, in the test with NCI/ADR-RES ovarian and in the test with RPMI-8226 leukemia was above 100 µM in each case. Also, the TGI with RXF 393 renal, with SK-MEL-28 melanoma and in the test on SK-OV-3 ovarian was above 100 µM in each case.
On to `CSC(=NC1=NC(C(F)(F)F)(C(F)(F)F)N=C(c2ccccc2)O1)SC`, for which the TGI with ACHN renal was 14.9 µM; in the test on HOP-92 NSCLC, 49.2 µM; with MDA-N it was 41.7 µM; in the test with MOLT-4 leukemia it was 85.3 µM; with NCI/ADR-RES ovarian, 90.9 µM; with OVCAR-5 ovarian it was 82.3 µM. The TGI in the test on RXF 393 renal was 24.5 µM; with SK-MEL-28 melanoma, above 100 µM; with SK-OV-3 ovarian, above 100 µM.
`O=C1OS2(OCc3cccc4cccc2c34)c2ccccc21` (stereo unspecified): the TGI in the test on ACHN renal, with HOP-92 NSCLC, in the test with MDA-N, with MOLT-4 leukemia, with NCI/ADR-RES ovarian and in the test with OVCAR-5 ovarian was above 100 µM each time. The TGI with RPMI-8226 leukemia, with SK-MEL-28 melanoma and in the test on SK-OV-3 ovarian was above 100 µM each time.
